Results from PubChem BioAssay (NCI).
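Results reflect a 48-hour exposure of cells in 96-well plates to compound at five concentrations. GI50 = concentration required for 50% inhibition of growth. TGI denotes the concentration required for complete inhibition of growth.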

Each compound was assayed on SK-MEL-28 melanoma (assay: DTP human tumour cell line panel, 48 h).

| SMILES | GI50 [µM] | TGI [µM] |
| --- | --- | --- |
| COc1ccccc1CNCCCN1C(=O)c2ccc3c4c(ccc(c24)C1=O)C(=O)N(CCCOCCCCOCCCN)C3=O | 1.59 | 3.05 |
| CCOC(=O)[C@@H](N)CCC(=O)N[C@@H](CSCc1ccccc1)C(=O)N[C@@H](C(=O)OCC)c1ccccc1 | 16.7 | 31.7 |
| COc1ccc(Nc2c3ccccc3nc3occc23)cc1 | 3.06 | 22.8 |
| CC(=O)/C(C)=N/NC(=O)c1ccccc1O | > 100 | > 100 |
| COc1cc(/C=C/c2cc(/C=C/c3ccc(O)c(OC)c3)n(C(=O)Nc3ccc(F)c(Cl)c3)n2)ccc1O | 0.52 | 3.92 |
| CCCCCCCC/C=C/CCCCCCCC(=O)OC[C@H]1O[C@@H](n2ccc(N)nc2=O)C(F)(F)[C@@H]1O | > 51.1 | > 100 |
| NS(=O)(=O)c1ccc(N=Nc2c(O)[nH]c3ccc(-c4cnco4)cc23)cc1 | > 25 | > 25 |
| Clc1ccc(C2=Nn3c(COc4ccccc4Cl)nnc3SC2)c(Cl)c1 | 17 | 53.9 |
| COc1cc2c3c(n(CCCNC(=O)OCC4c5ccccc5-c5ccccc54)c(=O)c2cc1OC)-c1cc2c(cc1/C3=C\CCNC(=O)OCC1c3ccccc3-c3ccccc31)OCO2 | > 50 | > 50 |
| N#C/C(=C1C=C(Br)/C(=N\O)C=C\1Cl)c1cccc2ccccc12 |  | 21.9 |
| COC(=O)[C@@H](C)CNS(=O)(=O)N(c1cc(C(F)(F)F)cc(C(F)(F)F)c1)C1CCN(Cc2ccc(F)cc2)CC1 | 14 | 27.8 |
| C=C1C(=O)O[C@@H]2/C=C(\C)CC/C=C(/COC(C)=O)C[C@@H](OC(C)=O)[C@@H]12 |  | 23.5 |
| COC(=O)[C@H](C)NC(=O)NC(=O)NC(=O)CI | 14.4 | 29.9 |

The compounds below were run on SK-MEL-5 melanoma (assay: DTP human tumour cell line panel, 48 h).

| SMILES | GI50 [µM] | TGI [µM] |
| --- | --- | --- |
| CC(C)n1nc(-c2cc3cc(O)ccc3[nH]2)c2c(N)ncnc21 | 0.171 | 1.43 |
| CCCCC(O)(c1ccc(Cl)cc1)C(CN1CCOCC1)c1ccc(Cl)cc1 (stereo unspecified) | 13.8 | 28.7 |
| NCC1Nc2ccccc2[C@@H](O)C1O (stereo partly specified) |  | > 100 |
| Cc1cccc(N2CCN(C(=S)c3ccc4c(c3)OCO4)CC2)c1 | 0.437 | 35.1 |
| O=C(N/N=C/c1ccc(Cl)cc1)c1ccc(C(F)(F)F)nc1Nc1cccc(C(F)(F)F)c1 | 1.46 | 3.55 |
| COc1cc2ncnc(Nc3ccc(C)c(O)c3)c2cc1OC | > 25 | > 25 |
| COC(=O)C1=CNC=C(C(=O)OC)C1C1=CC(=O)C(C)=CC1=O | 20.7 | 43.7 |
| Cc1cc(S(=O)(=O)Nc2nnc(-c3ccccc3)c(-c3ccccc3)n2)c(SCC(N)=O)cc1Cl | 57.8 | > 100 |
| COc1ccc(/C=C/c2ccnc3ccccc23)c(OC)c1 |  | > 10 |
| Cc1ccc(C(=O)CN(/C=C/C(=O)C(F)(F)F)c2ccc(S(N)(=O)=O)cc2)cc1 | 49.8 | > 100 |
| NS(=O)(=O)c1ccc(NC2(C(=O)O)CCCC2)cc1 |  | > 100 |
| O=C(O)C1OC(n2cc(F)c(=O)[nH]c2=O)CC1O (stereo unspecified) |  | > 100 |
| N=C1C(c2nc3ccccc3s2)=C(O)CN1c1cc(C(F)(F)F)ccc1Cl | 6.61 | 46.7 |
| CC(=O)CSCc1ccccn1 |  | > 100 |
| COc1ccccc1CNCCCN1C(=O)c2ccc3c4c(ccc(c24)C1=O)C(=O)N(CCCOCCCCOCCCN)C3=O | 0.288 | 1.18 |
| CCOC(=O)[C@@H](N)CCC(=O)N[C@@H](CSCc1ccccc1)C(=O)N[C@@H](C(=O)OCC)c1ccccc1 | 14.2 | 27.5 |
| COc1ccc(Nc2c3ccccc3nc3occc23)cc1 | 1.32 | 13.4 |
| CC(=O)/C(C)=N/NC(=O)c1ccccc1O |  | > 100 |
| COc1cc(/C=C/c2cc(/C=C/c3ccc(O)c(OC)c3)n(C(=O)Nc3ccc(F)c(Cl)c3)n2)ccc1O | 0.243 | 1.37 |
| CCCCCCCC/C=C/CCCCCCCC(=O)OC[C@H]1O[C@@H](n2ccc(N)nc2=O)C(F)(F)[C@@H]1O | 0.0327 | > 100 |
| NS(=O)(=O)c1ccc(N=Nc2c(O)[nH]c3ccc(-c4cnco4)cc23)cc1 | > 25 | > 25 |
| Clc1ccc(C2=Nn3c(COc4ccccc4Cl)nnc3SC2)c(Cl)c1 | 12.6 | 28.5 |
| COc1cc2c3c(n(CCCNC(=O)OCC4c5ccccc5-c5ccccc54)c(=O)c2cc1OC)-c1cc2c(cc1/C3=C\CCNC(=O)OCC1c3ccccc3-c3ccccc31)OCO2 | > 50 | > 50 |
| N#C/C(=C1C=C(Br)/C(=N\O)C=C\1Cl)c1cccc2ccccc12 |  | 13.4 |
| COC(=O)[C@@H](C)CNS(=O)(=O)N(c1cc(C(F)(F)F)cc(C(F)(F)F)c1)C1CCN(Cc2ccc(F)cc2)CC1 | 3.19 | 12 |
| C=C1C(=O)O[C@@H]2/C=C(\C)CC/C=C(/COC(C)=O)C[C@@H](OC(C)=O)[C@@H]12 |  | 25.7 |
| COC(=O)[C@H](C)NC(=O)NC(=O)NC(=O)CI | 17.6 | 31.8 |

What follows are compounds tested on UO-31 renal (assay: DTP human tumour cell line panel, 48 h).

| SMILES | GI50 [µM] | TGI [µM] |
| --- | --- | --- |
| CC(C)n1nc(-c2cc3cc(O)ccc3[nH]2)c2c(N)ncnc21 | 0.0464 | 0.726 |
| CCCCC(O)(c1ccc(Cl)cc1)C(CN1CCOCC1)c1ccc(Cl)cc1 (stereo unspecified) | 12.2 | 26.2 |
| NCC1Nc2ccccc2[C@@H](O)C1O (stereo partly specified) |  | > 100 |
| Cc1cccc(N2CCN(C(=S)c3ccc4c(c3)OCO4)CC2)c1 | 14.4 | > 100 |
| O=C(N/N=C/c1ccc(Cl)cc1)c1ccc(C(F)(F)F)nc1Nc1cccc(C(F)(F)F)c1 | 1.66 | 5.42 |
| COc1cc2ncnc(Nc3ccc(C)c(O)c3)c2cc1OC | 1.59 | > 17.2 |
| COC(=O)C1=CNC=C(C(=O)OC)C1C1=CC(=O)C(C)=CC1=O | 12 | 24.5 |
| Cc1cc(S(=O)(=O)Nc2nnc(-c3ccccc3)c(-c3ccccc3)n2)c(SCC(N)=O)cc1Cl | > 100 | > 100 |
| COc1ccc(/C=C/c2ccnc3ccccc23)c(OC)c1 |  | > 10 |
| Cc1ccc(C(=O)CN(/C=C/C(=O)C(F)(F)F)c2ccc(S(N)(=O)=O)cc2)cc1 | > 100 | > 100 |
| NS(=O)(=O)c1ccc(NC2(C(=O)O)CCCC2)cc1 |  | > 100 |
| O=C(O)C1OC(n2cc(F)c(=O)[nH]c2=O)CC1O (stereo unspecified) |  | > 100 |
| N=C1C(c2nc3ccccc3s2)=C(O)CN1c1cc(C(F)(F)F)ccc1Cl | 2.63 | 6.18 |
| CC(=O)CSCc1ccccn1 |  | > 100 |
| COc1ccccc1CNCCCN1C(=O)c2ccc3c4c(ccc(c24)C1=O)C(=O)N(CCCOCCCCOCCCN)C3=O | 1.55 | 3.15 |
| CCOC(=O)[C@@H](N)CCC(=O)N[C@@H](CSCc1ccccc1)C(=O)N[C@@H](C(=O)OCC)c1ccccc1 | 34.5 | > 59.5 |
| COc1ccc(Nc2c3ccccc3nc3occc23)cc1 | 22.5 | > 100 |
| CC(=O)/C(C)=N/NC(=O)c1ccccc1O |  | > 10 |
| COc1cc(/C=C/c2cc(/C=C/c3ccc(O)c(OC)c3)n(C(=O)Nc3ccc(F)c(Cl)c3)n2)ccc1O | 0.248 | 1.82 |
| CCCCCCCC/C=C/CCCCCCCC(=O)OC[C@H]1O[C@@H](n2ccc(N)nc2=O)C(F)(F)[C@@H]1O | < 0.0136 | 0.125 |
| NS(=O)(=O)c1ccc(N=Nc2c(O)[nH]c3ccc(-c4cnco4)cc23)cc1 | > 25 | > 25 |
| Clc1ccc(C2=Nn3c(COc4ccccc4Cl)nnc3SC2)c(Cl)c1 | 31.2 | > 100 |
| COc1cc2c3c(n(CCCNC(=O)OCC4c5ccccc5-c5ccccc54)c(=O)c2cc1OC)-c1cc2c(cc1/C3=C\CCNC(=O)OCC1c3ccccc3-c3ccccc31)OCO2 | > 50 | > 50 |
| N#C/C(=C1C=C(Br)/C(=N\O)C=C\1Cl)c1cccc2ccccc12 |  | 24.1 |
| COC(=O)[C@@H](C)CNS(=O)(=O)N(c1cc(C(F)(F)F)cc(C(F)(F)F)c1)C1CCN(Cc2ccc(F)cc2)CC1 | 11.7 | 26 |
| C=C1C(=O)O[C@@H]2/C=C(\C)CC/C=C(/COC(C)=O)C[C@@H](OC(C)=O)[C@@H]12 |  | 22.3 |
| COC(=O)[C@H](C)NC(=O)NC(=O)NC(=O)CI | 6.83 | 20.1 |
